For orientation: Kd means the concentration at which binding is half-saturated. The Ki is a dissociation constant, usually derived from enzyme kinetics or from competition with a known ligand. Low readings indicate higher affinity, high ones lower affinity.

Several values for one entry are separate records, joined by “and”; a condition that tells them apart may be missing. Identical values can stand only once.

We go through two molecules from PMC3793977, “High-Throughput Screening (HTS) and Hit Validation to Identify Small Molecule Inhibitors with Activity against NS3/4A proteases from Multiple Hepatitis C Virus Genotypes” (PLoS ONE, 2013).

The target in assay [1] is T1, full-length NS3/4A (Hepatitis C virus genotype 1b, UniProt Q9WMX2).
T1 construct: wild-type HCV NS3 (HCV polyprotein residues 1027–1657); His-tag (N); made in house
The assay can be described thus: SPR binding assay (dissociation equilibrium constant KD). The following applies: for SPR binding to NS3/4A, double referenced: double referenced with blank and unrelated reference protein. The procedure: The full-length NS3/4A enzyme was prepared in a storage buffer (50 mM HEPES, pH 7.6, 500 mM NaCl, 1 mM DTT, 0.2% Triton X-100, and 20% glycerol) and immobilized on a CM5 sensor chip using standard amine-coupling at 25°C with running buffer HBS-P (10 mM HEPES, 150 mM NaCl, 0.05% surfactant P-20, pH 7.4) using a Biacore T100 instrument. Flow channels 1 and 3 were activated by 1-ethyl-3-(3-dimethylaminopropyl) carbodiimide hydrocholoride (EDC)/N-hydroxy succinimide (NHS) mixture, and the activated surface was blocked by ethanolamine (pH 8.5) as controls. The NS3/4A enzyme was diluted in 10 mM sodium acetate (pH 5.0), and immobilized to flow channel 4 after sensor surface activation with EDC/NHS with a 7 min injection followed by ethanolamine blocking on unoccupied surface area. NS3/4A immobilization level was ∼8,500 response units (RU). An unrelated reference protein (92 kDa) was also immobilized to flow channel 2 as another control to be compared with NS3/4A (74.6 kDa). Fifteen initial hit compounds were prepared as 10 mM DMSO stock solutions. Compound solutions with a series of increasing concentrations (0–200 µM at 1.5-fold dilution) were applied to all four channels at a 10 µL/min flow rate at 25°C. Sensorgrams were analyzed using Biaevaluation software 2.0.3, and response unit difference (ΔRU) values at each concentration were measured during the equilibration phase. Data were either single referenced with a blank (enthanolamine) or double referenced with both blank and reference protein RU values. SigmaPlot 11.0 was used to fit the data to a single rectangular hyperbolic curve to determine KD values. The hyperbola function, y = ymax·x/(KD+x), was used to plot response units and corresponding concentration, where y is the response, ymax is the maximum response, and x is the compound concentration.
On the technique in general: SPR reads the build-up and loss of mass on a sensor chip optically.

Assay [2] deals with T2, full-length NS3/4A enzyme complex (Hepatitis C virus genotype 1b, UniProt Q9WMX2).
T2 construct: wild-type HCV NS3 (HCV polyprotein residues 1027–1657); His-tag (N); made in house
The assay can be described thus: Reversibility of inhibition by dilution. Format: biochemical. The conditions noted are these: dilution 25-fold and 50-fold. The method, then: The reversibility of hit compounds was determined by dilution. The full-length NS3/4A enzyme complex was prepared as 20-fold (200 nM) of the assay concentration and was incubated with screened compounds at 20-fold IC50 value or slightly higher concentration for 30 minutes at room temperature in the same assay condition as the primary screen in a final volume of 100 µL. The concentration of enzyme and testing compound was optimized to yield at least 95% inhibition before dilution. The NS3/4A enzyme with the same volume of DMSO in place of each compound was also prepared as a control. NS3/4A activity was measured in the same way as the IC50 measurements. Then enzyme-inhibitor solution was diluted 25-fold and 50-fold and incubated for 30 minutes before measuring the percent recovery of the enzyme activity. All reversibility assays were done in triplicate.

The target of assay [3] is T3, full-length NS3/4A protease (genotype 1b) (Hepatitis C virus genotype 1b, UniProt Q9WMX2).
T3 construct: wild-type HCV NS3 (HCV polyprotein residues 1027–1657); His-tag (N); made in house
The assay can be described thus: biochemical. The following applies: purified full-length NS3/4A, genotype 1b wild-type; read-out: IC50 Full-length NS3/4A. The method, then: All assays were done in duplicate in black 384-well plates (Matrix Technologies). […] 200 nL of 10 mM compound (50 µM final concentrations) were then added and incubated for 5 minutes. Enzyme reactions were initiated with 10 µL of substrate Ac-DE-Dap(QXL520)-EE-Abu-ψ-[COO]AS-C(5-FAMsp)-NH2 (Anaspec) (1 µM final concentration), incubated for 6 minutes, and quenched by 10 µL of 10% SDS as a stop solution. Fluorescence intensity was monitored with a POLARstar OPTIMA microplate reader (BMG LABTECH). Each plate contained a total of 32 positive and 32 negative controls.
A series of compound concentrations (0 to 200 µM final concentration at 2-fold serial dilution) in 100% DMSO were prepared in a 384-well plate. 20 µL of enzyme solution was distributed to wells, and 0.5 µL of varying concentration of compounds were added and incubated for 5 minutes. The enzyme reaction was initiated by adding 5 µL of the substrate, and its activity was continuously monitored for 6 minutes. The IC50 values were calculated by fitting with the Hill equation (1), with OriginPro 8.5 (OriginLab, Inc.) where y is percent inhibition, x is inhibitor concentration, n is the slope of the concentration–response curve (Hill slope), and Vmax is maximal inhibition from two to four independent assays. [drawing 1] (1)

In assay [4] the target is T4, full-length NS3/4A genotype 1b mutant A156V (Hepatitis C virus genotype 1b, UniProt Q9WMX2, A1182V).
T4 construct: wild-type HCV NS3 (HCV polyprotein residues 1027–1657); His-tag (N); made in house
The assay can be described thus: Inhibition assay with drug-resistant mutant A156V. The class given is biochemical. The conditions noted are these: genotype 1b full-length mutant. The method, then:
(§1) The full-length genes of wild-type HCV NS3 (HCV polyprotein residues 1027–1657) with a his-tag at the N-terminus and NS4A (residues 1658–1711) with no tag were cloned, co-expressed, and purified as described. Eight NS3 drug resistant mutants (V36M, V36A, T54A, R155K, R155T, A156T, A156S, and 156V) were generated by mutagenesis using full-length, wild-type NS3-containing recombinant plasmid (pETDuet-1/FL NS3/4A) as a template. The over-expression and purification of all mutants were performed by the same method as the wild-type with minor modifications.
(§2) The inhibitory activity of the final hit compounds from HTS were tested against three other HCV genotypes (1a, 2a, and 4d), along with a control (genotype 1b) and five NS3 drug-resistant mutants. Eight full-length NS3 mutants (V36M, R155K, A156T, A156S, 156V, V36A, T54A, and R155T) were generated by mutagenesis and purified, and the three HCV NS3/4A protease genotypes were purchased from Anaspec. Unfortunately the enzyme activities of the three mutants V36A, T54A, and R155T were much less than that of the rest of the mutants and were insufficient for testing, therefore mutant studies were done with the five active mutants. Continuous kinetic assays were performed against all hit compounds in the same way as the wild-type NS3/4A. […]

Assay [5] addresses T1, full-length NS3/4A. The assay can be described thus: Type (mechanism) of enzyme inhibition, kinetic analysis. The class given is biochemical. The method, then:
Full-length NS3/4A activity was monitored in the same way as the primary screening with varying concentration of both inhibitor compounds and substrate (0–8 µM). The concentration of compounds varied from 0 to 20 µM at 1.5-fold dilution factor.

For assay [6], the target named is T5, full-length NS3/4A genotype 1b mutant A156T (Hepatitis C virus genotype 1b, UniProt Q9WMX2, A1182T).
T5 construct: wild-type HCV NS3 (HCV polyprotein residues 1027–1657); His-tag (N); made in house
The assay can be described thus: Inhibition assay with drug-resistant mutant A156T. Format: biochemical. The following applies: in words. The method, then: as §1, §2

Another assay has as its target T6, Chymotrypsin (Homo sapiens, UniProt P17538).
T6 construct: purchased Sigma
The assay can be described thus: Inhibitor selectivity assay, chymotrypsin (fluorometric). The class given is biochemical. The following applies: human chymotrypsin. The method, then:
(§3) To test for selectivity, two human serine proteases, Trypsin and Chymotrypsin (Sigma), were tested with the top two hit compounds from HTS using a fluorometric assay. The fluorogenic substrates used in this study were N-benzoyl-L-Arg-7-amido-4-methylcoumarin (Sigma) and N-succinyl-Ala-Ala-Phe-7-amido-4- methylcoumarin (Sigma) for trypsin and chymotrypsin, respectively. All assays were performed in 384-well black plates (Corning) in a total volume of 24 µL of PBS (pH 7.4) buffer containing 0.01% Triton, 0.1 mg/mL BSA, and 2 mM GSH in triplicate. A series of compound concentrations (0 to 200 µM final concentration at 2-fold serial dilution) in 100% DMSO was prepared in a 384-well plate. 20 µL of trypsin (0.01 mg/mL) and chymotrypsin (0.0001 mg/mL) solutions were distributed into wells, and 0.5 µL of varying concentration of compounds were added and incubated for 10 minutes. The enzyme reaction was initiated by adding 5 µL of the substrate (50 µM final concentration), and fluorescence intensity was continuously monitored at excitation/emission wavelengths of 350 nm/460 nm for 10 minutes.

A further assay concerns the target T7, Trypsin (Homo sapiens, UniProt P07477).
T7 construct: purchased Sigma
The assay can be described thus: Inhibitor selectivity assay, trypsin (fluorometric). Format: biochemical. The method, then:
as §3

Assay [7] addresses T8, full-length NS3/4A genotype 1b mutant V36M (Hepatitis C virus genotype 1b, UniProt Q9WMX2, V1062M).
T8 construct: wild-type HCV NS3 (HCV polyprotein residues 1027–1657); His-tag (N); made in house
The assay can be described thus: Inhibition assay with drug-resistant mutant V36M. The class given is biochemical. The following applies: genotype 1b full-length mutant. The procedure: as §1, §2

Assay [8] concerns the target T9, full-length NS3/4A genotype 1b mutant R155K (Hepatitis C virus genotype 1b, UniProt Q9WMX2, R1181K).
T9 construct: wild-type HCV NS3 (HCV polyprotein residues 1027–1657); His-tag (N); made in house
The assay can be described thus: Inhibition assay with drug-resistant mutant R155K. Format: biochemical. The following applies: in words. The method, then: as §1, §2

Assay [9] addresses NS3/4A protease genotype 4d (Hepatitis C virus subtype 4d, UniProt Q1ZZ56). The assay can be described thus: Inhibition assay with NS3/4A from genotype 4d. The class given is biochemical. The procedure:
(§4) The inhibitory activity of the final hit compounds from HTS were tested against three other HCV genotypes (1a, 2a, and 4d), along with a control (genotype 1b) and five NS3 drug-resistant mutants. Eight full-length NS3 mutants (V36M, R155K, A156T, A156S, 156V, V36A, T54A, and R155T) were generated by mutagenesis and purified, and the three HCV NS3/4A protease genotypes were purchased from Anaspec. Unfortunately the enzyme activities of the three mutants V36A, T54A, and R155T were much less than that of the rest of the mutants and were insufficient for testing, therefore mutant studies were done with the five active mutants. Continuous kinetic assays were performed against all hit compounds in the same way as the wild-type NS3/4A. As a control, full-length NS3/4A (genotype 1b) was tested under the same conditions for direct comparison for each plate.

Assay [10] deals with T10, NS3/4A protease genotype 2a (Hepatitis C virus genotype 2a, UniProt Q99IB8).
T10 construct: against the NS3/4A protease domains from three additional HCV genotypes (1a, 2a, and 4d); purchased Anaspec
The assay can be described thus: Inhibition assay with NS3/4A from genotype 2a. Format: biochemical. The following applies: IC50 Purified NS3/4A Sub-genotype 2a, genotype 2a. The method, then: as §4

For assay [11], the target named is T11, NS3/4A protease genotype 1a (Hepatitis C virus genotype 1a, UniProt P27958).
T11 construct: against the NS3/4A protease domains from three additional HCV genotypes (1a, 2a, and 4d); purchased Anaspec
The assay can be described thus: Inhibition assay with NS3/4A from genotype 1a. Format: biochemical. The following applies: IC50 NS3/4A genotype 1a. The method, then: as §4

Assay [12] has as its target T12, full-length NS3/4A genotype 1b mutant A156S (Hepatitis C virus genotype 1b, UniProt Q9WMX2, A1182S).
T12 construct: wild-type HCV NS3 (HCV polyprotein residues 1027–1657); His-tag (N); made in house
The assay can be described thus: Inhibition assay with drug-resistant mutant A156S. The following applies: in words. Format: biochemical. The method, then:
as §1, §2

T6 sequence (P17538 19-263): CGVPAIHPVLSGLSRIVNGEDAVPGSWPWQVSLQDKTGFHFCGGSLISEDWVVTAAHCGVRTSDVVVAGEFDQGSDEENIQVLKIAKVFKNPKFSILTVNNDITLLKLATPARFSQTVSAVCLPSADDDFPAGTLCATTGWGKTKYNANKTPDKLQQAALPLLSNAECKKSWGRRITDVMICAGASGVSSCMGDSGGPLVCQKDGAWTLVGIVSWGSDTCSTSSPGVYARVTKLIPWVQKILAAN

Molecule `CC1(C)CCc2cc(/C=C(\C#N)C(=O)c3cccc(C(F)(F)F)c3)ccc2O1` [Compound 6] yielded a Kd on full-length NS3/4A [1] (SPR, 25°C, single rectangular hyperbolic fit) of 8.3 ± 1.9 µM. The “SPR binding to NS3/4A, double referenced” value on full-length NS3/4A [1] is “specific binding”. Besides, the reversibility of inhibition result in [2] is reported as “reversible”. Besides, the IC50 in assay [3] is 7.6 ± 0.6 µM.

`CC(C)C(=O)N1CCc2ccc(NC(=O)COc3ccc(F)cc3)cc2C1` [Compound 13]: the “SPR binding to NS3/4A, double referenced” value at full-length NS3/4A [1] is “specific binding”. Further, the IC50 was under 20 µM in [4]; 110 ± 32 µM against Chymotrypsin; over 100 µM on Trypsin (human trypsin); under 20 µM in assay [7]; under 20 µM in assay [9]; under 20 µM in assay [10]. Moreover, the IC50 in assay [11] is 1.7 µM and < 20 µM; in assay [3] it was 20.2 ± 2.2 µM. The same molecule came in with an inhibitory constant (Ki) at full-length NS3/4A [5] (competitive model, with respect to substrate) of 19.1 µM. Also, the mechanism of inhibition entry at full-length NS3/4A [5] (with respect to the substrate, best fit model) was “competitive inhibitors”. In addition, in [6], the “activity against mutant A156T compared with wild-type” value is listed as “decreased in activity”. In addition, the inhibition at 100 µM at Trypsin (100 µM compound, read-out: Trypsin % Inh at 100 µM) came to 5.1%. For the same molecule, the “activity against mutant R155K compared with wild-type” value in assay [8] is “completely lost activity”. Also, the “activity against mutant A156S compared with wild-type” value in assay [12] was “decreased in activity”.
